# Test results published in patent publication US20210269447A1, “NOVEL AMINO-IMIDAZOPYRIMIDINE DERIVATIVES AS JANUS KINASE INHIBITORS AND PHARMACEUTICAL USE THEREOF” (LEO Pharma A/S, priority 2018, published 2021).
# Key:
# STAT5 irfi-bla TF1 cells = test: STAT5 Assay; type: cell-based; settings: TF-1; stimulated with recombinant human erythropoietin (EPO) 10 ng/mL; beta-lactamase reporter
# Method: Twenty-five μL of a STAT5 irfi-bla TF1 (Invitrogen #K1219) cell suspension was seeded with a density of about 10,000 cells/well in 384-well Black View-plates (PerkinElmer #6007460) with clear bottom in assay medium (Opti-MEM (Invitrogen #11058-021)+0.5% heat inactivated fetal bovine Serum (Invitrogen #10082-147)+1% non-essential amino acids (Invitrogen #11140-050)+1% sodium pyruvate (Invitrogen #11360-070)+1% penicillin/streptomycin (Invitrogen #15140-122)). The cell plates were incubated overnight in a humidified 37° C. air/CO2 (95%/5%) incubator. The following day, 125 nL of solutions of test compounds and reference compounds were transferred to cell plates using the Labcyte Echo 550 liquid handler. The plates were then incubated for 1 h in a humidified 37° C. air/CO2 (95%/5%) incubator. Hereafter recombinant human erythropoietin (EPO) (Invitrogen #PHC9634) was added to the plates also using the Labcyte Echo 550 to a final concentration of 10 ng/mL. The cells were then incubated for 4½-5 h in a humidified 37° C. air/CO2 (95%/5%) incubator. 8 μL of LiveBLAzer substrate mixture (Invitrogen #K1095) were then added to the assay plates, which were then incubated overnight at RT. Fluorescence was then measured: Excitation: 405 nm; Emission: 460 nm (green channel), Emission: 535 nm (blue channel). Background was subtracted in both emission channels and the ratio 460/535 nm was calculated for each well.
# [1] = biological target: T1, Human baculovirus-expressed tyrosin kinase (TYK) 2 (Homo sapiens, UniProt P29597); test: TYK2 kinase assay (HTRF); type: biochemical; settings: catalytic domain, ATP at Km (13 μM), 20 min
# T1 construct: JAK1 (aa 850-1154) and TYK2 (aa 871-1187) are expressed with an N-terminally fused GST-tag; GST (N); purchased Carna Biosciences, Inc 08-147; host or cells: baculovirus expression system
# T1 sequence (P29597 871-1187): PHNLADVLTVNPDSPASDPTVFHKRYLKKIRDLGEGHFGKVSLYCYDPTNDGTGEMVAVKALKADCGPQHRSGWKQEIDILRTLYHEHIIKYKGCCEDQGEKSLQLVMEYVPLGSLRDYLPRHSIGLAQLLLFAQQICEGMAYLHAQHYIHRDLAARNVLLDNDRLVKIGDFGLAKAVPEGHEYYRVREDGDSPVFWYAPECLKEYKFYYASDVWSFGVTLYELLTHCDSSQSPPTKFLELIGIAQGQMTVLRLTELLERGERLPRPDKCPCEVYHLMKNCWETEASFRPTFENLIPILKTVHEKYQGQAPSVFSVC
# Method: (§1) Human baculovirus-expressed Janus kinase (JAK) 1, 2, 3 and tyrosin kinase (TYK) 2 were purchased from Carna Biosciences, Inc (#08-144, -045, -046, -147 resp.). All four purified enzymes contain only the catalytic domain. JAK1 (aa 850-1154) and TYK2 (aa 871-1187) are expressed with an N-terminally fused GST-tag, and JAK2 and JAK3 with an N-terminally fused His-tag. Inhibition of phosphorylation of a synthetic peptide was measured in an HTRF-based assay (CisBio #62TKOPEC). First, 75 nL of test compound solution (100% DMSO) was added to a white shallow 384-well plate (NUNC #264706) using a Labcyte ECHO 550 liquid handler. Thereafter, 1 μL of compound dilution buffer (50 mM HEPES, 0.05% bovine serum albumin) and 2 μL of TK solution (TK substrate-biotin in kinase buffer [1× enzymatic buffer from HTRFKinEASE TK kit, 1 mM DTT]) was added. Then, 5 μL kinase-ATP mix (prepared in kinase buffer) was added to the wells and the plates were incubated at RT for 20 (JAK2, 3 and TYK2) to 40 (JAK1) min. For all four kinases a concentration of ATP that corresponded to the Km for ATP was used. The final concentrations of buffers, substrate, kinase and ATP were: JAK1: 50 mM Hepes buffer pH 7.0, 0.01% BSA, 10 mM MgCl2, 1 mM DTT, 7 μM ATP, 50 nM SEB, 1 μM TK Substrate-Biotin and 5 ng JAK1; JAK2: 50 mM Hepes buffer pH 7.0, 0.01% BSA, 5 mM MgCl2, 1 mM DTT, 4 μM ATP, 1 μM TK Substrate-Biotin and 0.1 ng JAK2; JAK3: 50 mM Hepes buffer pH 7.0, 0.01% BSA, 5 mM MgCl2, 1 mM DTT, 2 μM ATP, 1 μM TK Substrate-Biotin and 0.3 ng JAK3; TYK2: 50 mM Hepes buffer pH 7.0, 0.01% BSA, 5 mM MgCl2, 1 mM DTT, 13 μM ATP, 50 nM SEB, 1 μM TK Substrate-Biotin and 0.8 ng TYK2. […] A PerkinElmer Envision reader was used to quantify the HTRF signal using the following filters; 320 nm excitation filter, 665 nm emission filter and a 615 nm 2nd emission filter. A ratio ((665/615)×104) was calculated for each well.
# [2] = biological target: T2, Human baculovirus-expressed Janus kinase (JAK) 3 (Homo sapiens, UniProt P52333); test: JAK3 kinase assay (HTRF); type: biochemical; settings: catalytic domain, ATP at Km (2 μM), 20 min
# T2 construct: All four purified enzymes contain only the catalytic domain; His-tag (N); purchased Carna Biosciences, Inc 08-046; host or cells: baculovirus expression system
# T2 sequence (P52333 822-1111 limits assumed): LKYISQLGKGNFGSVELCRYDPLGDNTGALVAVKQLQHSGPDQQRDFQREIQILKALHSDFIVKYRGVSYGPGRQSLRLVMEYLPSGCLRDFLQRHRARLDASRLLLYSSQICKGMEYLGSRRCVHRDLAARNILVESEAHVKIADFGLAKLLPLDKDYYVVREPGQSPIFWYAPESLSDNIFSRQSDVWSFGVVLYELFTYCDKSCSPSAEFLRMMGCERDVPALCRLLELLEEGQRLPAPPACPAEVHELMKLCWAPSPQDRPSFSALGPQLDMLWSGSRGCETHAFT
# Method: as §1
# STAT6 bla-RA1 cells = test: STAT6 Assay; type: cell-based; settings: stimulated with recombinant human interleukin 4 10 ng/mL; CD40 ligand; beta-lactamase reporter
# Method: Twenty-five μL of a STAT6 bla-RA1 (Invitrogen #K1243) cell suspension was seeded with a density of 30-40,000 cells/well in 384-well Black View-plates (PerkinElmer #6007460) with clear bottom in assay medium (Opti-MEM (Invitrogen #11058-021)+0.5% heat inactivated fetal bovine Serum (Invitrogen #10082-147)+1% non-essential amino acids (Invitrogen #11140-050)+1% sodium pyruvate (Invitrogen #11360-070)+1% penicillin/streptomycin (Invitrogen #15140-122)); containing 550 ng/mL of CD40 ligand (Invitrogen #PHP0025). The cell plates were incubated overnight in a humidified 37° C. air/CO2 (95%/5%) incubator. The following day, 125 nL of solutions of test compounds and reference compounds were transferred to cell plates using the Labcyte Echo 550 liquid handler. The plates were then incubated for 1 h in a humidified 37° C. air/CO2 (95%/5%) incubator. Hereafter recombinant human interleukin 4 (Invitrogen #PHC0045) were added to the plates also using the Labcyte Echo 550 to a final concentration of 10 ng/mL. The cells were then incubated for 4½-5 h in a humidified 37° C. air/CO2 (95/b/5%) incubator. 8 μL of LiveBLAzer substrate mixture (Invitrogen #K1095) were then added to the assay plates, which were incubated overnight at RT. Fluorescence was then measured: Excitation: 405 nm; Emission: 460 nm (green channel), Emission: 535 nm (blue channel). Background was subtracted in both emission channels and the ratio 460/535 nm was calculated for each well.
# [3] = biological target: T3, Human baculovirus-expressed Janus kinase (JAK) 1 (Homo sapiens, UniProt P23458); test: JAK1 kinase assay (HTRF); type: biochemical; settings: catalytic domain, ATP at Km (7 μM), 40 min
# T3 construct: JAK1 (aa 850-1154) and TYK2 (aa 871-1187) are expressed with an N-terminally fused GST-tag; GST (N); purchased Carna Biosciences, Inc 08-144; host or cells: baculovirus expression system
# T3 sequence (P23458 850-1154): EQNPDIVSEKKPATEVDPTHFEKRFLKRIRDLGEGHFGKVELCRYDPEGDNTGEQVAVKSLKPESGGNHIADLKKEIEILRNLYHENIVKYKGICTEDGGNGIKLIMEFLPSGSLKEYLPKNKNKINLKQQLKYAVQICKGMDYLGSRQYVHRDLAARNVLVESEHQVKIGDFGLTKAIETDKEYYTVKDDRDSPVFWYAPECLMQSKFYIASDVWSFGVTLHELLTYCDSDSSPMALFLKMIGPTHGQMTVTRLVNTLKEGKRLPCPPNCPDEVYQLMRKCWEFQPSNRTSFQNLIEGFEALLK
# Method: as §1
# [4] = biological target: T4, Human baculovirus-expressed Janus kinase (JAK) 2 (Homo sapiens, UniProt O60674); test: JAK2 kinase assay (HTRF); type: biochemical; settings: catalytic domain, ATP at Km (4 μM), 20 min
# T4 construct: All four purified enzymes contain only the catalytic domain; His-tag (N); purchased Carna Biosciences, Inc 08-045; host or cells: baculovirus expression system
# T4 sequence (O60674 849-1124 limits assumed): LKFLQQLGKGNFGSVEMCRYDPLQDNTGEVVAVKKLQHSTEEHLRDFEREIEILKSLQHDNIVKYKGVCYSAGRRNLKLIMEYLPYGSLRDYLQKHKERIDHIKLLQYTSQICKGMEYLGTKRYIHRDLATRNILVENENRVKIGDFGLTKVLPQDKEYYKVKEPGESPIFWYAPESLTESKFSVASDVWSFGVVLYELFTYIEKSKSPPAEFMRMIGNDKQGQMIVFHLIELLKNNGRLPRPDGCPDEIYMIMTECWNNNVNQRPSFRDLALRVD
# Method: as §1
EC50 (STAT5 irfi-bla TF1 cells) [nM],EC50 [1] [nM],EC50 [2] [nM],EC50 (STAT6 bla-RA1 cells) [nM],EC50 [3] [nM],EC50 [4] [nM],Structure (SMILES)
4870,13,510,142,3,129,"[2H]C([2H])([2H])Nc1ncc2nc([C@@H](C)O)n([C@H]3CC[C@H](CC#N)CC3)c2n1 [Compound 3, 2-[trans-4-[8-[(1R)-1-Hydroxyethyl]-2-(trideuteriomethylamino)purin-9-yl]cyclohexyl]acetonitrile]"
5190,19,602,146,5,157,"CNc1ncc2nc([C@@H](C)O)n([C@H]3CC[C@H](CC#N)CC3)c2n1 [Compound 1, 2-[trans-4-[8-[(1R)-1-Hydroxyethyl]-2-(methylamino)purin-9-yl]cyclohexyl]acetonitrile]"
12800,47,798,213,9,274,"CNc1ncc2nc(C(C)O)n([C@H]3CC[C@H](CC#N)CC3)c2n1 (mixture of isomers) [Compound 2, 2-[trans-4-[8-(1-Hydroxyethyl)-2-(methylamino)purin-9-yl]cyclohexyl]acetonitrile]"
